Legend:
[1] = system: sclerodermatous cGvHD in BALB/c (H-2d) mice; assay: Murine sclerodermatous chronic graft-versus host disease (cGvHD); format: in vivo; conditions: 10 mg/kg b.i.d., day 21 to day 56 post transplantation
Source text: 5.10. Murine Sclerodermatous Chronic Graft-Versus Host Disease (cGvHD)
In this cGvHD model, fibrosis is induced in BALB/c (H-2d) mice by allogeneic transplantation of bone marrow cells and splenocytes from B10.D2 (H-2d) donor mice (minor HLA mismatch). The recipient mice develop inflammation-driven dermal and pulmonary fibrosis resembling patients with rapidly progressive diffuse cutaneous systemic sclerosis. (Zerr et al., 2012)
The treatment is provided only after the onset of first clinical symptoms of sclerodermatous cGvHD. […]
The anti-fibrotic effects on skin were analysed by determination of dermal thickness, quantification of lesional collagen and staining for myofibroblasts.
In case of positive effects on skin fibrosis, effects on pulmonary fibrosis were analysed by Ashcroft scoring, by hydroxyproline content and by quantification of the collagen covered area using SirCol staining.
Based on individual animal raw data, the means for each group were determined and percent change from disease controls was calculated. Treatment groups were compared to disease controls using a one-way analysis of variance (1-way ANOVA) with a Dunnett's post-hoc analysis for measured (parametric) data or a Kruskal-Wallis test with a Dunn's post-hoc analysis for scored (non-parametric) data.

[2] = system: MIA induced inflammatory hypersensitivity to pain; assay: MIA rat pain model (weight bearing); format: in vivo, Male Sprague Dawley
Source text: 5.11.1. Principle of the Assay
The mono-iodoacetate (MIA) model has become a standard model established by Van der Kraan (van der Kraan et al., 1989) for modelling joint disruption in OA in rat.
Intra-articular injection of MIA in rodents reproduces OA-like lesions and functional impairment that can be analyzed and quantified. MIA is an inhibitor of […], disrupting cellular glycolysis and eventually resulting in cell death (van der Kraan et al., 1989).
The MIA pain mouse model described by Pitcher et al. (Pitcher et al. 2016) is used to evaluate the effect of a test compound against tactile allodynia by intra-articular injection of MIA causes chondrocyte cell death, leading to cartilage degeneration and subsequent subchondral bone alterations such as appearance of bone osteophytes (Janusz et al., 2001).
MIA is the one most often used, particularly to test the efficacy of pharmacologic agents to treat pain, as this model generates a reproducible, robust, and rapid pain-like phenotype that can be graded by altering MIA dosage.
Male Sprague Dawley (250-300 g) were housed at 22±1° C. and in light-controlled environment (lights on from 7 am to 8 pm) with ad libitum access to food and water.
Inflammatory hypersensitivity to pain was induced by an injection of Monosodium Iodoacetate (MIA) 25 ul 80 mg/ml solution, into the left knee joint. Animals developed inflammatory response within 3 days post MIA.
The test compounds were administered to the treatment groups on a […] basis, starting from day 3 (D3), and continued until the end-point day on D28.
On day 3, weight-bearing measurements were taken and animals ranked and randomized to treatment groups.
On the test days, pre-dose allodynia was evaluated prior to dosing, and the effects of the administered compounds assessed 2 hours post dosing.
The test compounds were administered to the treatment groups on daily basis, according to treatment group, (some were dosed days 3-7 post MIA, and some were dosed days 24-28 post MIA) and 2 hours post dosing weight-bearing measurements were taken.
The negative control group (n=6) was daily dosed per os with the vehicle (methylcellulose, MC 0.5%), the positive control group (n=10) was daily dosed per os with Celecoxib (50 mg/kg), and the test compound group (n=10) was daily dosed per os, with 0.5% MC/Solutol for days 3-7 post MIA (Inflammatory Phase). […]
For each readout, mean and sem are calculated. A difference statistically significant between intact or treated groups and in MIA vehicle group is evaluated with Prism software using a Two-way ANOVA (for treatment groups) followed by a Dunnett's multiple comparisons post-hoc test. *: p<0.05; **: p<0.01; ***: p<0.001 versus MIA Vehicle group.

Compound: COc1cn2nc(CCC(C)(C)O)cc2cc1NC(=O)c1cccn(C2CC2)c1=O [Compound 1, 1-cyclopropyl-N-[2-(3-hydroxy-3-methylbutyl)-6-methoxypyrazolo[1,5-a]pyridin-5-yl]-2-oxopyridine-3-carboxamide]
- effect on Lung fibrosis (Ashcroft, SirCol) [1]: statistically significant effect
- effect on skin fibrosis (Hydroxyproline) [1]: statistically significant effect
- reversal of inflammatory response on weight bearing ([2]; 5 mg/kg daily per os, days 5-7): significantly reversed the inflammatory response
- reversal of inflammatory response on weight bearing ([2]; 5 mg/kg daily per os, days 26-28): significantly reversed the inflammatory response
- reversal of inflammatory response on weight bearing ([2]; 30 mg/kg daily per os, days 3-7): significantly reversed the inflammatory response
- reversal of inflammatory response on weight bearing ([2]; 30 mg/kg daily per os, days 26-28): significantly reversed the inflammatory response

— patent US20220218679A1, “NOVEL COMPOUNDS AND PHARMACEUTICAL COMPOSITIONS THEREOF FOR THE TREATMENT OF INFLAMMATORY DISORDERS” (Galapagos NV, priority 2019, published 2022)
